From PubChem BioAssay AID248 (DTP/NCI, 2004)
Values joined by “and” are separate entries in the source; they are usually repeats but may differ in a detail not shown here. Identical values can stand only once. Inconclusive results and toxic doses are left out. Rule as the data show it: active = T/C of 150% or more; inactive = T/C below 125%.

System: L1210 leukemia ip in BDF1 mice, survival T/C
Test: NCI In Vivo Anticancer Drug Screen. Data for tumor model L1210 Leukemia (intraperitoneal) in B6D2F1 (BDF1) mice
Settings: endpoint: mean survival time, higher = longer survival
Summary of the method: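 Value reflects the ratio of survival in compound-treated mice to survival in vehicle-treated controls, with both groups carrying the same transplanted tumor.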

[1] = dose: 100.0 mg/kg/injection, schedule: Q04DX003 (ip), vehicle: saline with Tween-80
[2] = dose: 200.0 mg/kg/injection, schedule: Q04DX003 (ip), vehicle: saline with Tween-80
[3] = dose: 400.0 mg/kg/injection, schedule: Q04DX003 (ip), vehicle: saline with Tween-80
[4] = dose: 100.0 mg/kg/injection, schedule: Q01DX009 (ip), vehicle: gum acacia
[5] = dose: 100.0 mg/kg/injection, schedule: Q04DX003 (ip), vehicle: Klucel (hydroxypropylcellulose) (HPC)
[6] = dose: 200.0 mg/kg/injection, schedule: Q01DX009 (ip), vehicle: gum acacia
[7] = dose: 200.0 mg/kg/injection, schedule: Q04DX003 (ip), vehicle: Klucel (hydroxypropylcellulose) (HPC)
[8] = dose: 400.0 mg/kg/injection, schedule: Q01DX009 (ip), vehicle: gum acacia
[9] = dose: 400.0 mg/kg/injection, schedule: Q04DX003 (ip), vehicle: Klucel (hydroxypropylcellulose) (HPC)
[10] = dose: 100.0 mg/kg/injection, schedule: Q01DX001 (ip), vehicle: saline
[11] = dose: 200.0 mg/kg/injection, schedule: Q01DX001 (ip), vehicle: saline
[12] = dose: 400.0 mg/kg/injection, schedule: Q01DX001 (ip), vehicle: saline
[13] = dose: 100.0 mg/kg/injection, schedule: Q04DX002 (ip), vehicle: Klucel (hydroxypropylcellulose) (HPC)
[14] = dose: 200.0 mg/kg/injection, schedule: Q04DX002 (ip), vehicle: Klucel (hydroxypropylcellulose) (HPC)
[15] = dose: 400.0 mg/kg/injection, schedule: Q04DX002 (ip), vehicle: Klucel (hydroxypropylcellulose) (HPC)
[16] = dose: 100.0 mg/kg/injection, schedule: Q01DX001 (ip), vehicle: Klucel (hydroxypropylcellulose) (HPC)
[17] = dose: 200.0 mg/kg/injection, schedule: Q01DX001 (ip), vehicle: Klucel (hydroxypropylcellulose) (HPC)
[18] = dose: 100.0 mg/kg/injection, schedule: Q01DX009 (ip), vehicle: Klucel (hydroxypropylcellulose) (HPC)
[19] = dose: 200.0 mg/kg/injection, schedule: Q01DX009 (ip), vehicle: Klucel (hydroxypropylcellulose) (HPC)
[20] = dose: 400.0 mg/kg/injection, schedule: Q01DX009 (ip), vehicle: Klucel (hydroxypropylcellulose) (HPC)
[21] = dose: 100.0 mg/kg/injection, schedule: Q01DX009 (ip), vehicle: saline with Tween-80

Measured: T/C

C1CCC(SSC2CCCC2)C1
inactive: [1] 89 % of control | [2] 92 % of control | [3] 92 % of control

Cc1c(Cl)cccc1NC(=O)c1ccc(Cl)c(Cl)c1
inactive: [4] 88 % of control | [5] 103 % of control | [6] 88 % of control | [7] 90 % of control | [8] 91 % of control | [9] 95 % of control

CC(C)NC=O
inactive: [10] 96 % of control | [11] 102 % of control | [12] 104 % of control

CNC(=O)C1C(c2ccccc2)C1c1ccccc1 (centres undefined)
inactive: [13] 102 % of control | [14] 97 % of control | [15] 94 % of control

CN=C(N)c1ccc(N=C(N)c2ccc(Cl)c(C(N)=Nc3ccc(C(N)=NC)cc3)c2)cc1
inactive: dose: 10.0 mg/kg/injection, schedule: Q01DX Z (ip), vehicle: water 96 % of control | dose: 20.0 mg/kg/injection, schedule: Q01DX Z (ip), vehicle: water 113 % of control

CN(Cc1ccccc1)C(=O)C(Cl)Cl
inactive: [13] 103 % of control | [14] 117 % of control | [15] 109 % of control

Cc1nc(N)sc1CCCl
inactive: dose: 36.0 mg/kg/injection, schedule: Q01DX015 (ip), vehicle: carboxymethylcellulose (CMC) 100 % of control | dose: 54.0 mg/kg/injection, schedule: Q01DX015 (ip), vehicle: carboxymethylcellulose (CMC) 94 % of control

N#Cc1c2ccccc2c(=N)n2ccccc12
inactive: [16] 95 % of control | [5] 98 % of control | [17] 105 % of control | [7] 104 % of control | dose: 400.0 mg/kg/injection, schedule: Q01DX001 (ip), vehicle: Klucel (hydroxypropylcellulose) (HPC) 95 % of control | [9] 114 % of control

NC(N)=N/N=C\c1ccc(C2CCNCC2)cc1
inactive: dose: 15.0 mg/kg/injection, schedule: Q01DX Z (ip), vehicle: methylcellulose (MC) 107 % of control | dose: 15.0 mg/kg/injection, schedule: Q01DX Z (oral), vehicle: methylcellulose (MC) 110 % of control | dose: 30.0 mg/kg/injection, schedule: Q01DX Z (ip), vehicle: methylcellulose (MC) 108 % of control | dose: 30.0 mg/kg/injection, schedule: Q01DX Z (oral), vehicle: methylcellulose (MC) 100 % of control | dose: 60.0 mg/kg/injection, schedule: Q01DX Z (oral), vehicle: methylcellulose (MC) 104 % of control

NC(CCl)=NCc1ccccn1
inactive: dose: 100.0 mg/kg/injection, schedule: Q04DX002 (ip), vehicle: saline 96 % of control

CNS(=O)(=O)CCC1NC(=O)NC1=O (centres undefined)
inactive: [1] 100 % of control | [2] 105 % of control | [3] 101 % of control

CC(=O)Nc1ccc(C=O)cc1
inactive: [10] 100 % of control | [11] 97 % of control | [12] 116 % of control

Cc1ccc(/C(=C\c2ccccc2)C(=O)c2ccccc2)cc1
inactive: [18] 95 % of control | [5] 93 % of control | [19] 92 % of control | [7] 93 % of control | [20] 95 % of control | [9] 101 % of control

COc1ccc(C(=O)c2ccn[nH]2)cc1
inactive: dose: 75.0 mg/kg/injection, schedule: Q04DX003 (ip), vehicle: Klucel (hydroxypropylcellulose) (HPC) 97 % of control | dose: 150.0 mg/kg/injection, schedule: Q04DX003 (ip), vehicle: Klucel (hydroxypropylcellulose) (HPC) 100 % of control | dose: 300.0 mg/kg/injection, schedule: Q04DX003 (ip), vehicle: Klucel (hydroxypropylcellulose) (HPC) 99 % of control

O=C(COc1ccc(Cl)cc1C(=O)O)NCc1ccc(Cl)cc1
inactive: [4] 92 % of control | [6] 106 % of control | [8] 92 % of control

COc1cccc(OC)c1CCCl
inactive: dose: 100.0 mg/kg/injection, schedule: Q04DX003 (ip), vehicle: saline 95 % of control | dose: 200.0 mg/kg/injection, schedule: Q04DX003 (ip), vehicle: saline 97 % of control | dose: 400.0 mg/kg/injection, schedule: Q04DX003 (ip), vehicle: saline 110 % of control

COC(=O)C1C2CC3c4[nH]c5ccc(OC)cc5c4CCN3CC2CC(OC(=O)c2cc(OC)c(OC)c(OC)c2)C1OC (centres undefined)
inactive: dose: 10.0 mg/kg/injection, schedule: Q04DX003 (ip), vehicle: Klucel (hydroxypropylcellulose) (HPC) 102 % of control | dose: 20.0 mg/kg/injection, schedule: Q04DX003 (ip), vehicle: Klucel (hydroxypropylcellulose) (HPC) 98 % of control | dose: 22.81 mg/kg/injection, schedule: Q01DX009 (ip), vehicle: Klucel (hydroxypropylcellulose) (HPC) 111 % of control | dose: 40.0 mg/kg/injection, schedule: Q04DX003 (ip), vehicle: Klucel (hydroxypropylcellulose) (HPC) 114 % of control | dose: 45.62 mg/kg/injection, schedule: Q01DX009 (ip), vehicle: Klucel (hydroxypropylcellulose) (HPC) 91 % of control | dose: 80.0 mg/kg/injection, schedule: Q04DX003 (ip), vehicle: Klucel (hydroxypropylcellulose) (HPC) 96 % of control | dose: 91.25 mg/kg/injection, schedule: Q01DX009 (ip), vehicle: Klucel (hydroxypropylcellulose) (HPC) 94 % of control | dose: 160.0 mg/kg/injection, schedule: Q04DX003 (ip), vehicle: Klucel (hydroxypropylcellulose) (HPC) 93 % of control | dose: 240.0 mg/kg/injection, schedule: Q04DX003 (ip), vehicle: Klucel (hydroxypropylcellulose) (HPC) 107 % of control | dose: 365.0 mg/kg/injection, schedule: Q04DX003 (ip), vehicle: Klucel (hydroxypropylcellulose) (HPC) 102 % of control

CC(CC(=O)O)Nc1ccc(Cl)c(Cl)c1 (centres undefined)
inactive: dose: 25.0 mg/kg/injection, schedule: Q01DX009 (ip), vehicle: saline with Tween-80 100 % of control | dose: 50.0 mg/kg/injection, schedule: Q01DX009 (ip), vehicle: saline with Tween-80 102 % of control | [21] 94 % of control | [1] 107 % of control | [2] 96 % of control

S=C=NCCCCCCCCCCCCN=C=S
inactive: dose: 6.25 mg/kg/injection, schedule: Q01DX009 (ip), vehicle: saline with Tween-80 101 % of control | dose: 12.5 mg/kg/injection, schedule: Q01DX009 (ip), vehicle: saline with Tween-80 93 % of control | dose: 25.0 mg/kg/injection, schedule: Q04DX002 (ip), vehicle: saline with Tween-80 114 % of control | dose: 50.0 mg/kg/injection, schedule: Q04DX002 (ip), vehicle: saline with Tween-80 111 % of control | dose: 100.0 mg/kg/injection, schedule: Q04DX002 (ip), vehicle: saline with Tween-80 101 % of control

CN(C)CCC(c1ccccc1)c1nc(N)nc(C(CCN(C)C)c2ccccc2)n1 (centres undefined)
inactive: dose: 50.0 mg/kg/injection, schedule: Q04DX002 (ip), vehicle: Klucel (hydroxypropylcellulose) (HPC) 102 % of control | [18] 115 % of control | [13] 105 % of control

N#CC(Nc1ccccc1)c1ccccc1 (centres undefined)
inactive: [18] 91 % of control | [5] 97 % of control | [19] 96 % of control | [7] 95 % of control | [9] 104 % of control

CC1(C)CN1C1=C(NC(=O)CCl)C(=O)c2ccccc2C1=O
inactive: [5] 87 % of control | [7] 94 % of control | [9] 91 % of control

Cc1nnc(C)n1N
inactive: [10] 106 % of control | [11] 106 % of control | [12] 95 % of control

CC(=O)OC1CCC2(C)C(=CCC3C2CCC2(C)C3CC3C(c4ccccc4F)=NN(c4ccccc4)C32C#N)C1 (centres undefined)
inactive: [13] 106 % of control | [14] 95 % of control | [15] 95 % of control

C=CCOC(=O)Nc1ccccc1
inactive: [16] 92 % of control and 90 % of control | [18] 106 % of control | [17] 93 % of control and 94 % of control | [19] 95 % of control | dose: 300.0 mg/kg/injection, schedule: Q01DX001 (ip), vehicle: Klucel (hydroxypropylcellulose) (HPC) 97 % of control | [20] 101 % of control

CC(=O)Nc1ccc(Br)c(NC(C)=O)n1
inactive: [21] 109 % of control | dose: 200.0 mg/kg/injection, schedule: Q01DX009 (ip), vehicle: saline with Tween-80 101 % of control | dose: 400.0 mg/kg/injection, schedule: Q01DX009 (ip), vehicle: saline with Tween-80 112 % of control

CC(C)OC(=O)c1cccc2c1-c1ccccc1C2=O
inactive: [10] 92 % of control | [11] 92 % of control | [12] 95 % of control
